# What was measured:
# Conditions in all cases: 72 h
# [1] = test system: Caco-2; test: relative viability EC50 (midpoint between 100% and the lowest measured viability); higher = less toxic
# [2] = test system: Calu-3; test: as above
# [3] = test system: Vero E6; test: as above
# [4] = test system: HepG2; test: as above
# [5] = test system: Caco-2; test: drug sensitivity score (DSS) for viability; higher = more toxic; extreme values may be limits of the assay
# [6] = test system: Calu-3; test: as above
# [7] = test system: Vero E6; test: as above
# [8] = test system: HepG2; test: as above
# [9] = test system: Caco-2; test: cell viability relative to DMSO; higher = less toxic
# [10] = test system: Calu-3; test: as above
# [11] = test system: Vero E6; test: as above
# [12] = test system: HepG2; test: as above
# [13] = test system: U2OS; test: drug sensitivity score (DSS) for viability; higher = more toxic; extreme values may be limits of the assay
# [14] = test system: U2OS; test: cell viability relative to DMSO; higher = less toxic
Structure (SMILES),relative viability EC50 [1],relative viability EC50 [2],relative viability EC50 [3],relative viability EC50 [4],drug sensitivity score [5],drug sensitivity score [6],drug sensitivity score [7],drug sensitivity score [8],cell viability ([9]; 1 nM),cell viability ([9]; 10 nM),cell viability ([9]; 100 nM),cell viability ([9]; 1000 nM),cell viability ([9]; 10000 nM),cell viability ([10]; 1 nM),cell viability ([10]; 10 nM),cell viability ([10]; 100 nM),cell viability ([10]; 1000 nM),cell viability ([10]; 10000 nM),cell viability ([11]; 1 nM),cell viability ([11]; 10 nM),cell viability ([11]; 100 nM),cell viability ([11]; 1000 nM),cell viability ([11]; 10000 nM),cell viability ([12]; 1 nM),cell viability ([12]; 10 nM),cell viability ([12]; 100 nM),cell viability ([12]; 1000 nM),cell viability ([12]; 10000 nM),drug sensitivity score [13],cell viability ([14]; 1 nM),cell viability ([14]; 10 nM),cell viability ([14]; 100 nM),cell viability ([14]; 1000 nM),cell viability ([14]; 10000 nM)
NS(=O)(=O)c1cc(C(=O)O)c(NCc2ccco2)cc1Cl [furosemide],> 10 µM,> 10 µM,> 10 µM,> 10 µM,0,0,0,0,104%,95.8%,102%,106%,112%,98.1%,95.3%,103%,81.5%,104%,99.8%,90.5%,97.1%,89.6%,105%,121%,87.5%,113%,103%,120%,–,–,–,–,–,–
CNS(=O)(=O)Nc1nccc(Cc2c(C)c3ccc(Oc4ncccn4)cc3oc2=O)c1F,–,0.116 µM,–,0.0515 µM,6.7,13.1,10.9,23.5,99.8%,89.4%,82.9%,73.4%,62.5%,105%,96%,70.8%,50.1%,40.8%,94.6%,92.9%,75.4%,57%,50.3%,101%,91.8%,38.3%,23.8%,13.8%,2.5,98.2%,97.9%,94.3%,85.7%,70.8%
CN(C)CCCC(=O)Nc1ccc(C(=O)Nc2cccc(Nc3ncc(Cl)c(-c4c[nH]c5ccccc45)n3)c2)cc1 [THZ1-R],> 10 µM,> 10 µM,> 10 µM,1.22 µM,0.7,1.3,0,9.7,92.2%,98.6%,94.5%,100%,77.9%,97.6%,103%,106%,94.8%,79.7%,95.6%,98%,96.9%,93.4%,105%,96%,91.4%,107%,65.7%,9.4%,1.5,96.2%,104%,97.6%,102%,65.1%
CCn1cc(C(=O)O)c(=O)c2cc(F)c(N3CCNCC3)nc21 [enoxacin],> 10 µM,> 10 µM,> 10 µM,> 10 µM,0,0,0,0,105%,105%,103%,99.2%,99.6%,97.7%,103%,106%,105%,107%,101%,110%,103%,103%,97.6%,105%,105%,99.8%,96%,97.6%,–,–,–,–,–,–
CN1CCc2nc(C(=O)N[C@@H]3C[C@@H](C(=O)N(C)C)CC[C@@H]3NC(=O)C(=O)Nc3ccc(Cl)cn3)sc2C1 [edoxaban],> 10 µM,> 10 µM,> 10 µM,> 10 µM,0,0,0,0,92.4%,102%,94.4%,101%,107%,97.6%,96.4%,92.8%,98.3%,105%,99.5%,96%,94.8%,92.7%,104%,106%,94.9%,106%,96.4%,101%,–,–,–,–,–,–
Oc1cccc(-c2nc(N3CCOCC3)c3oc4ncccc4c3n2)c1 [PI-103],0.14 µM,–,–,–,13.1,5.1,11,5.3,100%,96.9%,81.2%,42.4%,49.9%,105%,95.1%,81.9%,84.1%,53.6%,98.3%,96.2%,87.9%,50.5%,53%,98.8%,104%,99.7%,70.9%,62%,5.6,103%,100%,97%,69.4%,76.6%
COc1c(O[C@@H]2O[C@H](CO)[C@@H](O)[C@H](O)[C@H]2O)cc2c(c1OC)-c1ccc(SC)c(=O)cc1[C@@H](NC(C)=O)CC2 [thiocolchicoside],> 10 µM,> 10 µM,> 10 µM,> 10 µM,0,0,0,0,96.1%,96.4%,82.7%,102%,94.5%,102%,93.2%,98.7%,102%,97.8%,102%,104%,99.1%,106%,103%,97%,100%,91.4%,97.2%,90.9%,–,–,–,–,–,–

# Source: the supplement of paper PMC13380429
